Data published in BindingDB's records for doi:10.1021/acs.jmedchem.2c01229 (University of Siena, 2023).

Test: Inhibition of SARS-CoV-1 RdRp-mediated viral replication

CN(C)CCCSc1ccccc1NC(=O)/C=C/c1ccccc1 [CINANSERIN]
IC50: 34 µM
